Measured values published in patent US5843990A, “Pyran-chromenone compounds, their synthesis and anti-HIV activity” (The University of Tennessee Research Corporation, priority 1996, dated 1998).
Entries after “also recorded” stand apart in the source; their conditions may differ. Read-outs that look alike come from different tables or passages of the source.

Assays:
HIV-1 = assay: NCI (Weislow) anti-HIV screen, XTT cell protection, HIV-1 infected CEM-SS; format: cell-based; settings: for anti-HIV activity / relative potency in words: NCI anti-HIV screen; for Classification (Active / Moderately Active / Inactive): Weislow assay, criteria of NCI protocol; for Classification (Active / Moderately Active / Inactive) / TI (therapeutic index, IC50/EC50): CEM-SS, HIV-1; for EC50: Human immunodeficiency virus 1, 6 days, HIV-1 infected CEM-SS cells, 8c, 8d tested as racemic drug, read-out: EC50 (effective inhibition for 50% of cell growth); for EC50 / TI (therapeutic index, IC50/EC50): Table 3; for TI (therapeutic index, IC50/EC50): 8640 min
Experimental: The compounds of this invention were also all assayed for activity in inhibiting the growth of HIV, human immunodeficiency virus, the virus known to cause AIDS. The protocol^25 was that of the National Cancer Institute (NCI) of the National Institutes of Health. The primary screen makes use of the HIV-1 strain of the virus. By this protocol, the procedure is as follows:
(1) The sample is dissolved in dimethyl sulfoxide, then diluted 1:100 in cell culture medium before preparing serial half-log10 dilutions. T4 lymphocytes (CEM cell line) are added, and after a brief interval, HIV-1 is added, resulting in a 1:200 dilution of the compound. Uninfected cells with the compound serve as a toxicity control, and infected and uninfected cells without the compound serve as basic controls. […]
(§1) (3) The tetrazolium salt, XTT, is added to all wells, and cultures are incubated to allow formazan color development by viable cells.
(§2) (4) Individual wells are analyzed spectrophotometrically to quantitate fornazan production, and in addition are viewed microscopically for detection of viable cells and confirmation of protective activity.
(§3) (5) Drug-treated, virus-infected cells are compared with drug-treated, noninfected cells and with other appropriate controls (untreated infected and untreated noninfected cells, drug-containing wells without cells, etc.) on the same plate.
(6) Data are reviewed in comparison with other tests done at the same time, and a determination about activity is made.
(§4) The results are given for IC50 and EC50. IC50 is a measure of "concentration for inhibition of 50% of cell growth" and is measured from drug-treated, uninfected cells, thus giving a measure of drug toxicity toward T4 lymphocytes. The EC50 is "effective inhibition for 50% of cell growth" and is measured on drug-treated, HIV-infected cells. A ratio of these values, IC50 /EC50 gives the therapeutic index, a measure of the overall effectiveness of the drug in halting virus-infestedcell growth. Typically for anti-HIV drugs to be classed as "active" in the NCI protocol, the IC50 value should be at least micromolar (10^-6 M) and the EC50 value should be sub-micromolar (10^-7 M or lower); however, these values are only ideal, and may vary a log-order in magnitude or more. […] Large, positive TI values, measured in the 10^2 -10^3 range indicate a potent, relatively nontoxic drug and represent the near-ideal drug candidate.
(§5) ^a Testing was conducted according to NCI's protocol [Weislow, O. W.
(§6) et al. J. Natl. Cancer Inst. 1989, 81, 577-586]. The virus strain was
(§7) HIV1, and the cell line was CEMSS.

[1] = tested on: T4 lymphocytes (CEM cell line), CEMSS; assay: NCI protocol toxicity control: growth of drug-treated, uninfected CEM-SS cells; format: cell-based; settings: Homo sapiens, Table 3, 8b-8e tested as racemic drug, read-out: IC50 (concentration for inhibition of 50% of cell growth)
Experimental: (§8) (1) The sample is dissolved in dimethyl sulfoxide, then diluted 1:100 in cell culture medium before preparing serial half-log10 dilutions. T4 lymphocytes (CEM cell line) are added, and after a brief interval, HIV-1 is added, resulting in a 1:200 dilution of the compound. Uninfected cells with the compound serve as a toxicity control, and infected and uninfected cells without the compound serve as basic controls.
(§9) (2) Cultures are incubated at 37° C. in a 5% carbon dioxide atmosphere for six days.
as §1, §2, §3, §4, §5, §6, §7

[2] = tested on: human immunodeficiency virus (HIV); settings: four diastereomers of the calanolide series, literature, cited from earlier work
[3] = tested on: HIV-1 (6R), an AZT-resistant strain; assay: NCI protocol, HIV-1 (6R) AZT-resistant strain, MT4 cells; format: cell-based; settings: for EC50: Human immunodeficiency virus 1, MT4; for TI (IC50/EC50) / Classification: Table 4, HIV-1 (6R), MT4 cells; for Classification: NCI criteria
Experimental: as §8, §9, §1, §2, §3, §4
(§10) Among these are the following strains of the virus: (1) HIV-1 (6R), an AZT-resistant strain; (2) N119, a nevirapine-resistant strain bearing a mutation at AA codon 181; (2) DPS, a diphenyl sulfone-resistant strain bearing a different mutation at AA codon 181.
as §5, §6
(§11) HIV1, and the cell line was MT4.

[4] = tested on: N119, a nevirapine-resistant strain bearing a mutation at AA codon 181; assay: NCI protocol, N119 nevirapine-resistant strain, MT4 cells; format: cell-based, HIV-1; settings: for EC50: Human immunodeficiency virus 1, MT4; for Classification: NCI criteria
Experimental: as §8, §9, §1, §2, §3, §4, §10, §5, §6, §11

[5] = tested on: DPS, a diphenyl sulfone-resistant strain bearing a different mutation at AA codon 181; assay: NCI protocol, DPS diphenyl sulfone-resistant strain, MT4 cells; format: cell-based, HIV-1; settings: for EC50: Human immunodeficiency virus 1, MT4; for TI (IC50/EC50) / Classification: Table 4, DPS, MT4 cells; for Classification: NCI criteria
Experimental: as §8, §9, §1, §2, §3, §4, §10, §5, §6, §11

MT4 cells = assay: NCI protocol toxicity control: growth of drug-treated, uninfected MT4 cells; format: cell-based; settings: Homo sapiens
Experimental: as §8, §9, §1, §2, §3, §4, §5, §6, §11

[6] = tested on: strains of HIV resistant to other drugs that inhibit HIV reverse transcriptase; assay: Activity against HIV strains resistant to other HIV reverse transcriptase inhibitors (summary in words); format: cell-based; settings: HIV-1 (6R), N119, DPS
From the text: as §10
From the data in the Table, both compounds (-)-7a and 8a were classified as "active" for inhibition of each resistant HIV strain. From the large TI values, their potencies against these resistant strains of the virus are novel and remarkable. Other compounds of the invention are expected also to have this property.
as §5, §6, §11

[7] = MT4, Table 4, line of strain DPS
[8] = MT4, Table 4, line of strain HIV-1 (6R)
[9] = MT4, Table 4, line of strain N119

With `CCCc1cc(=O)oc2c3c(cc(OC)c12)O[C@H](C)[C@@H](C)[C@@H]3O` (relative stereo) [Compound 8b] as the compound, how does the “anti-HIV activity / relative potency in words” value (HIV-1) read?
Its value is “less potent activities”.

And the “Classification (Active / Moderately Active / Inactive)” value (HIV-1)?
Its value is “Inactive”.

What about the IC50 [1] of the same compound?
The IC50 was over 200 µM.

What does the source list for `CCCc1cc(=O)oc2c3c(cc(OC(C)CC)c12)O[C@H](C)[C@@H](C)[C@@H]3O` (relative stereo) [Compound 8c]?
EC50 (HIV-1): 3.66 µM; anti-HIV activity / relative potency in words (HIV-1): less potent activities; TI (therapeutic index, IC50/EC50) (HIV-1): 10.2; Classification (Active / Moderately Active / Inactive) (HIV-1): Mod. Active; also recorded: moderately active; IC50 [1]: 37.4 µM

Which “anti-HIV activity / relative potency in words” value (HIV-1) does the source give for `C#CCOc1cc2c(c3oc(=O)cc(CCC)c13)[C@@H](O)[C@H](C)[C@@H](C)O2` (relative stereo) [Compound 8e] here?
The value was “less potent activities”.

And the “Classification (Active / Moderately Active / Inactive)” value (HIV-1)?
Its value is “Inactive”.

What about the IC50 [1] of the same compound?
Its IC50 is 8.34 µM.

With `CCCc1cc(=O)oc2c3c(c4c(c12)OC(C)(C)C=C4)OC(C)C(C)C3O` (single isomer, unassigned; (-)) [(-)-calanolide B] as the compound, how does the “anti-HIV potency of known calanolides, in words” value (from here on “anti-HIV potency”) [2] read?
Its value is “the more potent of the four diastereomers; also recorded: more potent diastereomers in this class”.

Which “anti-HIV potency” value [2] does the source give for `CCCc1cc(=O)oc2c3c(c4c(c12)OC(C)(C)C=C4)O[C@H](C)[C@@H](C)[C@@H]3O` [(+)-calanolide A] here?
The value was “the more potent of the four diastereomers”.

And the “anti-HIV potency” value ([2]; listed as (+)-Calanolide A)?
Its value is “more potent diastereomers in this class”.

For `CCCc1cc(=O)oc2c3c(cc(OC(C)C)c12)O[C@@H](C)[C@H](C)[C@@H]3O` [(-)-7a, (-)-(8S,9R,10S)-10-Hydroxy-5-isopropyloxy-8,9-dimethyl-4-propyl-9,10-di-hydro-8H-pyrano[2,3-f]-chromen-2-one], which EC50 (HIV-1) is on record?
The EC50 was 0.963 µM.

And the “anti-HIV activity / relative potency in words” value (HIV-1)?
The value was “highly potent; also recorded: remarkable”.

What about the “anti-HIV activity / relative potency in words” value (HIV-1; listed as (-)-7) of the same compound?
Its value is “consistently showed impressive results in the anti-HIV screen”.

What about the “TI (therapeutic index, IC50/EC50)” value (HIV-1) of the same compound?
Its value is 84.2.

And the “Classification (Active / Moderately Active / Inactive)” value (HIV-1)?
Its value is “Active”.

What about the IC50 [1] of the same compound?
The IC50 was 8.11 µM.

What about the EC50 [3] of the same compound?
Its EC50 is 0.639 µM.

And the “TI (IC50/EC50)” value [3]?
Its value is 16.9.

What about the Classification [3] of the same compound?
Its Classification is “Active”.

What about the EC50 [4] of the same compound?
Its EC50 is 0.00701 µM.

What about the “TI (IC50/EC50)” value ([4]; Table 4, N119, MT4 cells) of the same compound?
Its value is 1540.

What about the Classification ([4]; Table 4, N119, MT4 cells) of the same compound?
Its Classification is “Active”.

And the EC50 [5]?
Its EC50 is 0.099 µM.

And the “TI (IC50/EC50)” value [5]?
The value was 121.

And the Classification [5]?
The Classification was “Active”.

What about the IC50 (MT4 cells; [7]) of the same compound?
The IC50 was 12 µM.

What about the IC50 (MT4 cells; [8]) of the same compound?
Its IC50 is 10.8 µM.

And the IC50 (MT4 cells; [9])?
Its IC50 is 11.1 µM.

What about the “inhibitory activity against resistant HIV strains, in words” value (shortened to “inhibitory activity”) [6] of the same compound?
Its value is “potent inhibitory activities; also recorded: active; also recorded: potent activity”.

With `CCCc1cc(=O)oc2c3c(cc(OC(C)C)c12)O[C@@H](C)[C@H](C)[C@H]3O` [(-)-8a, (-)-(8S, 9R, 10R)-10-Hydroxy-5-isopropyloxy-8,9-dimethyl-4-propyl-9,10-dihydro-8H-pyrano[2,3-f]-chromen-2-one] as the compound, how does the “anti-HIV activity / relative potency in words” value (HIV-1) read?
Its value is “consistently showed impressive results in the anti-HIV screen”.

What about the “Classification (Active / Moderately Active / Inactive)” value (HIV-1) of the same compound?
The value was “Inactive”.

And the IC50 [1]?
Its IC50 is 7.34 µM.

Which “anti-HIV activity / relative potency in words” value (HIV-1) does the source give for `CCCc1cc(=O)oc2c3c(cc(OC(C)C)c12)O[C@H](C)[C@@H](C)[C@H]3O` [Compound 7a, (+)-(8R,9S,10R)-10-Hydroxy-5-isopropyloxy-8,9-dimethyl-4-propyl-9,10-di-hydro-8H-pyrano[2,3-f]-chromen-2-one] here?
Its value is “consistently showed impressive results in the anti-HIV screen”.

What about the “Classification (Active / Moderately Active / Inactive)” value (HIV-1) of the same compound?
The value was “Inactive”.

What about the IC50 [1] of the same compound?
Its IC50 is 8.4 µM.

Which EC50 (HIV-1) does the source give for `CCCc1cc(=O)oc2c3c(cc(OC(C)C)c12)O[C@H](C)[C@@H](C)[C@@H]3O` [Compound 8a, (+)-(8R,9S,10S)-10-Hydroxy-5-isopropyloxy-8,9-dimethyl-4-propyl-9,10-dihydro-8H-pyrano[2,3-f]-chromen-2-one] here?
The EC50 was 0.161 µM.

And the “anti-HIV activity / relative potency in words” value (HIV-1)?
The value was “consistently showed impressive results in the anti-HIV screen; also recorded: remarkable”.

And the “anti-HIV activity / relative potency in words” value (HIV-1; listed as (+)-8a)?
Its value is “remarkable among the congeners of the invention”.

What about the “TI (therapeutic index, IC50/EC50)” value (HIV-1) of the same compound?
Its value is 130.

What about the “Classification (Active / Moderately Active / Inactive)” value (HIV-1) of the same compound?
Its value is “Active”.

And the IC50 [1]?
The IC50 was 21 µM.

And the EC50 [3]?
The EC50 was 0.365 µM.

What about the “TI (IC50/EC50)” value [3] of the same compound?
Its value is 54.8.

What about the Classification [3] of the same compound?
The Classification was “Active”.

What about the EC50 [4] of the same compound?
The EC50 was 0.00635 µM.

And the Classification ([4]; Table 4, N119, MT4 cells)?
Its Classification is “Active”.

What about the EC50 [5] of the same compound?
Its EC50 is 0.0649 µM.

And the “TI (IC50/EC50)” value [5]?
Its value is over 308.

And the Classification [5]?
Its Classification is “Active”.

And the IC50 (MT4 cells; [7])?
The IC50 was over 20 µM.

And the IC50 (MT4 cells; [8])?
Its IC50 is over 20 µM.

And the IC50 (MT4 cells; [9])?
The IC50 was over 20 µM.

What about the “inhibitory activity” value [6] of the same compound?
The value was “potent inhibitory activities; also recorded: active”.

And the “inhibitory activity” value ([6]; listed as (+)-8a)?
The value was “potent activity”.
